Laboratory results published in article PMC7312786 (Biochemistry, 2018).

Key:
hRev1 = biological target: T1, hRev1 (Homo sapiens, UniProt Q9UBZ9); experiment: Gel-based pol extension assay, hRev1; type: biochemical; settings: read-out: IC50, hRev1, gel-based assay; best-fit value (95% confidence interval), three experiments
T1 sequence (Q9UBZ9 330-833): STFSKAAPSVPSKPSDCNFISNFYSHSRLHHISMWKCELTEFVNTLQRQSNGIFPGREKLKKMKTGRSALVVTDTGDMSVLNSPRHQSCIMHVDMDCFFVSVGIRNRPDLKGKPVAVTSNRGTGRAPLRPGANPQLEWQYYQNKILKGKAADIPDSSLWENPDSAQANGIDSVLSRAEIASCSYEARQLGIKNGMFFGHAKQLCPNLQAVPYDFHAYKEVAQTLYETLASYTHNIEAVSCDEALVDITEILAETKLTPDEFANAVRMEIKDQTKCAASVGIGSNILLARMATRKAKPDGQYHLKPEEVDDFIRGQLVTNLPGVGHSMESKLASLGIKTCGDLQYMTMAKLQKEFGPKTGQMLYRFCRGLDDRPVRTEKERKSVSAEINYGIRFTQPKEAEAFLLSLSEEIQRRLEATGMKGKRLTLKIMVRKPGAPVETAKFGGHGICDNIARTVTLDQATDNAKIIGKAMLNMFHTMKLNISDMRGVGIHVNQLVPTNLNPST

hpol ε = biological target: T2, hpol ε (Homo sapiens, UniProt Q07864, D275A/E277A); experiment: Fluorescence-based pol activity assay, hpol ε; type: biochemical
T2 sequence (Q07864 1-1189 D275A/E277A limits assumed): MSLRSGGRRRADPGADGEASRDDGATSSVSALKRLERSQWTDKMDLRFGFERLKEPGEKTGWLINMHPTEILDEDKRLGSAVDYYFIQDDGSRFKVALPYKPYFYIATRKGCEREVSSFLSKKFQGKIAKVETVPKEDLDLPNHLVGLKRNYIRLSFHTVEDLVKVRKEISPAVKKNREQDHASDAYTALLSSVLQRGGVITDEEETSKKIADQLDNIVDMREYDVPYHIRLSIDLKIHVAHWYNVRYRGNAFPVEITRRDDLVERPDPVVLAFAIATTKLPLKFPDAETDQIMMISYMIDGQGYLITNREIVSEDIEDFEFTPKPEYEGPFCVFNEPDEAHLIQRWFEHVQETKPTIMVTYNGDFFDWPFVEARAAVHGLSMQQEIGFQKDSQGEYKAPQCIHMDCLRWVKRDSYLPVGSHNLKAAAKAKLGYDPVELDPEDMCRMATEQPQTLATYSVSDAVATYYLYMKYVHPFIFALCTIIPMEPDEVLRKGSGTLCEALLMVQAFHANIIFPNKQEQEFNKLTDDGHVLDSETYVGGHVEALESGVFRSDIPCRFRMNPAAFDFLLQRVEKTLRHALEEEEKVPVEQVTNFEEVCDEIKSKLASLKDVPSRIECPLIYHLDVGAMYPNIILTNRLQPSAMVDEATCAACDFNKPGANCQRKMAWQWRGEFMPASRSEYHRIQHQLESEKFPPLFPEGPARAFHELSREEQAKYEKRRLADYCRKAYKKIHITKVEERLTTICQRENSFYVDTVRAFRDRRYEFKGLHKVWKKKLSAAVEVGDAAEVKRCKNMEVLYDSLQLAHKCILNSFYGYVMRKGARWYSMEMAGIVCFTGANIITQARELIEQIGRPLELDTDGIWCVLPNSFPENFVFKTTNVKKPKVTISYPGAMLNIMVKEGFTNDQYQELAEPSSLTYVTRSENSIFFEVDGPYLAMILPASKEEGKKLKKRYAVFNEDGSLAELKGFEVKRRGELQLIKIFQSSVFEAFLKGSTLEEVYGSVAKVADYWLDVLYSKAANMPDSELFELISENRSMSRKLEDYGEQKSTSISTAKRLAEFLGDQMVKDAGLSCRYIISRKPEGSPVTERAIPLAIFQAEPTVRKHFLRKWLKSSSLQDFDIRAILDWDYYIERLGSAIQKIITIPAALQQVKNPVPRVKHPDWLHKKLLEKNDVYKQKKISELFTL

hpol λ = biological target: T3, hpol λ (Homo sapiens, UniProt Q9UGP5); experiment: Fluorescence-based pol activity assay, hpol λ; type: biochemical
T3 sequence (Q9UGP5 251-575 limits assumed): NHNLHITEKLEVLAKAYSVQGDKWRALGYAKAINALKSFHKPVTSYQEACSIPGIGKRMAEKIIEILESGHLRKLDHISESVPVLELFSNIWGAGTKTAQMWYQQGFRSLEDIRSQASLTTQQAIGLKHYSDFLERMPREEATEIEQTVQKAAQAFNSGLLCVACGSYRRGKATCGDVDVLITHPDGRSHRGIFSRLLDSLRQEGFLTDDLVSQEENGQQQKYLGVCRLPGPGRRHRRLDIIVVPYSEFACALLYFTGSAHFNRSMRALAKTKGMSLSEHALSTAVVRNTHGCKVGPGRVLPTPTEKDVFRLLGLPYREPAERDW

[1] = biological target: T4, hpol η binding to primer–template DNA (Homo sapiens, UniProt Q9Y253); experiment: Fluorescence anisotropy DNA binding assay; settings: 1–12 μM inhibitor, also above the IC50
T4 sequence (Q9Y253 1-437): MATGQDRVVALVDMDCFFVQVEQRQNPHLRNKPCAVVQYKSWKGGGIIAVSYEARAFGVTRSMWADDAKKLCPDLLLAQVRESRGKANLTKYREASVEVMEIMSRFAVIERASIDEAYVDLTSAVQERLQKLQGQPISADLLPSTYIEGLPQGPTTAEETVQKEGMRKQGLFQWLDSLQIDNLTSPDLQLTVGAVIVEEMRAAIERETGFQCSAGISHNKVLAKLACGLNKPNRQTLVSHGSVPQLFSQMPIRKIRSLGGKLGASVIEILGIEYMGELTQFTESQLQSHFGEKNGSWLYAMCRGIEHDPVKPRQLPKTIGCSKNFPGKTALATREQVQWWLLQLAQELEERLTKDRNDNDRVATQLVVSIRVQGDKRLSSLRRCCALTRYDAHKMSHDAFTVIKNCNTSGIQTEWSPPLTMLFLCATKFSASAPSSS

OVCAR3 cells = experiment: Combined treatment of OVCAR3 cells with CDDP and PNR-7-02; type: cell-based, human

## O=C1NC(=S)NC(=O)C1=Cc1cn(Cc2ccc3ccccc3c2)c2ccc(Cl)cc12 [PNR-7-02, 5-((5-chloro-1-(naphthalen-2-ylmethyl)-1H-indol-3-yl)methylene)-2-thioxodihydropyrimidine-4,6-(1H,5H)-dione]
hRev1
  IC50: 8 µM
Hpol ε; 20 μM PNR-7-02, mean (±SD)
  Pol activity relative to DMSO control, hpol ε: 32 (±5) %
Hpol ε; from activity at 20 μM PNR-7-02
  Specificity for hpol η over replicative pols (hpol ε): 5–10 fold
Hpol λ; 20 μM PNR-7-02
  Effect on catalysis by hpol λ: strongly inhibited
Hpol λ; 20 μM PNR-7-02, mean (±SD)
  Pol activity relative to DMSO control, hpol λ: 5.9 (±2.1) %
Hpol λ; read-out: IC50, hpol λ, best-fit value and 95% confidence interval, three replicates
  IC50: 8 µM
[1]
  Change in Kd,DNA for hpol η binding to DNA: less than 20%
OVCAR3 cells
  Combination index (CI) with CDDP: 0.4
